Source: PMC4139061, “Structural basis of nucleoside and nucleoside drug selectivity by concentrative nucleoside transporters” (eLife, 2014)

Key:
Assay type in all cases: cell-based
hCNT2 = hCNT2 (Homo sapiens, UniProt O43868); test: two-electrode voltage-clamp of Na+ currents in Xenopus oocytes expressing hCNT2; conditions: data not shown
Excerpt: To detect nucleoside transport by hCNTs, we turned to two-electrode voltage-clamp electrophysiological recording. Because hCNTs are Na^+-nucleoside symporters, one can measure the current generated by the Na^+ transport that is coupled with nucleoside transport. We injected Xenopus oocytes with mRNA coding for each of the hCNTs and measured inward Na^+ currents elicited by the addition of different nucleosides to the extracellular side.
(§1) The genes coding for the three hCNTs and vcCNT were cloned into a pGEM-HE vector. Plasmids were linearized using either SphI or NheI, and mRNA was transcribed using the mMESSAGE mMACHINE T7 Transcription Kit (Ambion, Grand Island, NY). Defolliculated Xenopus laevis oocytes were purchased from Ecocyte Bioscience (Austin, TX). Individual oocytes were injected with 40 ng of mRNA using a 10-μl microdispenser (Drummond Scientific, Broomall, PA) fitted with a tapered glass pipette tip and incubated at 17 °C for 4–5 days in ND96 buffer (96 mM NaCl, 2 mM KCl, 1 mM MgCl2, 1.8 mM CaCl2, and 5 mM HEPES pH 7.5) with 0.1% penicillin and streptomycin before recording.
The oocyte-recording chamber was gravity-perfused with ND96 buffer at a rate of 2 ml/min. Membrane currents were measured using an Oocyte Clamp (OC-725C; Warner Instruments, Hamden, CT). Individual oocytes were penetrated with two microelectrodes filled with 3 M KCl (0.5–1.0 MΩ). […]

hCNT3 (375L/446V) = hCNT3 (375L/446V) (Homo sapiens, UniProt Q9HAS3, L446V/V375L); test: two-electrode voltage-clamp total charge in Xenopus oocytes expressing hCNT3 (375L/446V); conditions: mean of Exp. 1-11
Sequence of hCNT3 (375L/446V) (Q9HAS3 whole entry V375L/L446V): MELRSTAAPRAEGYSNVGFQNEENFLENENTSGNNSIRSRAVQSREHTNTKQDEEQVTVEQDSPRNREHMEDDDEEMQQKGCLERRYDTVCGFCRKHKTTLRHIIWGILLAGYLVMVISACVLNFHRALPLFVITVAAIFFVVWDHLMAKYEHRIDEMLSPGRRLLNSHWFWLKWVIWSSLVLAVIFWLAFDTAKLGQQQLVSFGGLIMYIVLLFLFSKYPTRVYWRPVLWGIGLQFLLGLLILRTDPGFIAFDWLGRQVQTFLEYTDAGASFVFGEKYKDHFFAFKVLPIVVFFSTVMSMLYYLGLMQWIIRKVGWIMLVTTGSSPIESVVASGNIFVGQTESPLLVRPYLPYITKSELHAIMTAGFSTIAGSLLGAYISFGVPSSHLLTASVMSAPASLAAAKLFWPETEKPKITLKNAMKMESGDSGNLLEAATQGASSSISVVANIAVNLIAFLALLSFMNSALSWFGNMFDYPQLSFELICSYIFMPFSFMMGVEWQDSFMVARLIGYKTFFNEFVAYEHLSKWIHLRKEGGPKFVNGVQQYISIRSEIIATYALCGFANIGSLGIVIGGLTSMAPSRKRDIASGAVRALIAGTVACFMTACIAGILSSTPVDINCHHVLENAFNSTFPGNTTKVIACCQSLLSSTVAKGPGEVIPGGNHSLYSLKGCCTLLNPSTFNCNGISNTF
Excerpt: In the paradigm of the alternating-access mechanism of sodium-coupled symporters ([Krishnamurthy et al., 2009]), substrate release is achieved by the transition from the inward-facing occluded to the inward-facing open state (Figure 6C).
(§2) Figure 6. […] (A) Model of hCNT3 nucleo-pocket. […] (B) Model of hCNT1 nucleo-pocket. […] (C) Hypothetical alternating-access mechanism of vcCNT. A cartoon representation of the different conformational states along the transport cycle is depicted. The transport domain (including HP1, HP2, TM4b, and TM7b) and TM6 are shown as cylinders. […] The nucleo-pocket in the inward-occluded conformation (bottom right) is located between TM6 and TM4 and is marked with a green star. The inward-occluded conformation is derived from the crystal structures of vcCNT. All other conformations are purely hypothetical. The transition between inward- and outward-facing conformations has been proposed to be achieved by a rigid-body movement of the transport domain across TM6 ([Johnson et al., 2012]). Extracellular and intracellular gating likely involves slight rearrangements of HP2/TM4b and HP1/TM7b, respectively. […] See Figure 6—source data 1 for total charge source data. DOI: http://dx.doi.org/10.7554/eLife.03604.024 Figure 6—source data 1. Total charge data. Total charge transported (μC) was calculated as the area under the curve of the current trace after application of the indicated nucleoside to hCNT-expressing Xenopus oocytes. Each row represents a separate experiment done using a different oocyte. The ratios of the total charge transported for the nucleosides are shown in the last columns.
The genes coding for the three hCNTs and vcCNT were cloned into a pGEM-HE vector. Plasmids were linearized using either SphI or NheI, and mRNA was transcribed using the mMESSAGE mMACHINE T7 Transcription Kit (Ambion, Grand Island, NY). […]
The oocyte-recording chamber was gravity-perfused with ND96 buffer at a rate of 2 ml/min. Membrane currents were measured using an Oocyte Clamp (OC-725C; Warner Instruments, Hamden, CT). […]

hCNT1 (353V/424L) = hCNT1 (353V/424L) (Homo sapiens, UniProt O00337, L353V/V424L); test: two-electrode voltage-clamp total charge in Xenopus oocytes expressing hCNT1 (353V/424L); conditions: mean of Exp. 1-8
Sequence of hCNT1 (353V/424L) (O00337 whole entry L353V/V424L): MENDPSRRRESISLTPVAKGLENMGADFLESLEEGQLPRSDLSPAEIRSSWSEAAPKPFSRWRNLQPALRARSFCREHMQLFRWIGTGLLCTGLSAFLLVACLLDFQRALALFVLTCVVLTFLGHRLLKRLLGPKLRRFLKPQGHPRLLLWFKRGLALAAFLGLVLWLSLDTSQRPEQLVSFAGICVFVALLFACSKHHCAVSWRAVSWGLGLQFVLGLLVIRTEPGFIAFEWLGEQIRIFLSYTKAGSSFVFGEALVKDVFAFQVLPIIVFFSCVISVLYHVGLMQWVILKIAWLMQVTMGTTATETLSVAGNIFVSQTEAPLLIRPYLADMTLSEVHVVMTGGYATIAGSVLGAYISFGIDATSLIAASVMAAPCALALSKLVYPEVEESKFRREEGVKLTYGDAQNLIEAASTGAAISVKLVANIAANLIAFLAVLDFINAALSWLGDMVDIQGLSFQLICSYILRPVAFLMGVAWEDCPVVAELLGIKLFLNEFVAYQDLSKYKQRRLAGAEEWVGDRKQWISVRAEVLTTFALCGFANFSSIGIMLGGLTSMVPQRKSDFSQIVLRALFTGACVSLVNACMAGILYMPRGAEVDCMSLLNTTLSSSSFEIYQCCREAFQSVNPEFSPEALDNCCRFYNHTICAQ
Excerpt: as §2, §1
The oocyte-recording chamber was gravity-perfused with ND96 buffer at a rate of 2 ml/min. Membrane currents were measured using an Oocyte Clamp (OC-725C; Warner Instruments, Hamden, CT). Individual oocytes were penetrated with two microelectrodes filled with 3 M KCl (0.5–1.0 MΩ). All electrophysiological experiments were conducted at room temperature. The OC-725C Oocyte Clamp was computer-interfaced via an Axon Digidata 1550 and controlled by Axoscope software (Molecular Devices, Sunnyvale, CA). The current signals were filtered at 20 Hz and sampled at intervals of 20 ms.

Sequence of hCNT2 (O43868 whole entry): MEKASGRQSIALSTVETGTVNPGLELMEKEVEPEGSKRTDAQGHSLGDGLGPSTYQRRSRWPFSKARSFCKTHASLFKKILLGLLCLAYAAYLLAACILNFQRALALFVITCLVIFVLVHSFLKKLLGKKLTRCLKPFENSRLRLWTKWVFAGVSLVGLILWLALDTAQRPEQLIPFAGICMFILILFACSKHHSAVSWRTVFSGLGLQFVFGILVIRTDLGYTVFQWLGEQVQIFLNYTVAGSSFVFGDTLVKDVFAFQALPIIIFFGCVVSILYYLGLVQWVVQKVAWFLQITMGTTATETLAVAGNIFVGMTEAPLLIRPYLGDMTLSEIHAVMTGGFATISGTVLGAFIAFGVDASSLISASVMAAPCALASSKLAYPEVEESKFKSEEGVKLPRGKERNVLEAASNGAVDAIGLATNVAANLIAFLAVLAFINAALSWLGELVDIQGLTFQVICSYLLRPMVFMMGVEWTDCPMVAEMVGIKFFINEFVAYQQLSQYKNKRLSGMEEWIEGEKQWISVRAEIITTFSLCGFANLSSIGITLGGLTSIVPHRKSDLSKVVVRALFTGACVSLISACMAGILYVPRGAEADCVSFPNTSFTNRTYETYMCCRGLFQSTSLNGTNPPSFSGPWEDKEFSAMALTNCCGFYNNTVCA

## Cc1cc2cn([C@@H]3O[C@H](CO)[C@@H](O)C3(F)F)c(=O)nc2[nH]1 [pyrrolo-gemcitabine]
hCNT2
  transport by hCNT2: transported neither compound
hCNT3 (375L/446V); 400 μM nucleoside, hCNT3 (375L/446V)-expressing Xenopus oocytes
  Total charge transported, Mean: 4.864 μC
hCNT3 (375L/446V); ratio of total charge, 400 μM each, hCNT3 (375L/446V)
  Qgem/Qpyr-gem, Mean: 1.287
hCNT1 (353V/424L); 400 μM nucleoside, hCNT1 (353V/424L)-expressing Xenopus oocytes
  Total charge transported, Mean: 0.255 μC
hCNT1 (353V/424L); ratio of total charge, 400 μM each, hCNT1 (353V/424L)
  Qpyr-gem/Qgem, Mean: 0.385
